Experimental data taken from patent US12201610B2, “Compositions comprising aticaprant” (Janssen Pharmaceuticals, Inc., priority 2022, dated 2025).

System: subjects with MDD
Assay: SMDDS total score (Example 6)
Assay type: in vivo, human
Conditions: 10 mg; Treatment Week 6; 59 subjects analyzed
From the text: SMDDS is a subjective rating of the patient. The SMDDS is a 16-item PRO measure. Each item is rated by the subject according to a 5-point Likert scale. Subjects respond to each question using a rating scale between 0 (“Not at all” or “Never”) to 4 (“Extremely” or “Always”). The total score ranges […]. The SMDDS uses a 7-day recall period and verbal rating scales. Higher score indicates more severe depressive symptomatology.
iv. To investigate the effect of aticaprant on symptoms of depression using the Clinical Global Impression-Severity (CGI-S), the patient reported Symptoms of Major Depressive Disorder Scale (SMDDS) and the self-assessment of treatment experience (SATE).
• (i) Depression: Montgomery-Åsberg Depression Rating Scale (MADRS), Clinical Global Impression-Severity (CGI-S), Symptoms of Major Depressive Disorder Scale (SMDDS), and Self-assessment of treatment experience (SATE) • (ii) Anhedonia: Snaith-Hamilton Pleasure Scale (SHAPS) • (iii) Anxiety: Structured Interview Guide for the Hamilton Anxiety scale (SIGH-A) and HAM-A6 • (iv) Effects on Cognition: The Cognitive and Physical Functioning Questionnaire (CPFQ) • (v) Safety assessments

Cc1cc(C)cc(C2CCCN2Cc2ccc(Oc3ccc(C(N)=O)cc3F)cc2)c1 (stereo not shown) [aticaprant, 3-fluoro-4-4-2-(3,5-dimethylphenyl)pyrrolidin-1-yl-methylphenoxybenzamide] was tested. Which “Change from Treatment Baseline in SMDDS Total Score, Arithmetic Mean (SD)” value did it give?
The value was −8.03 ± 9.957 Scores on a scale.
